Among the test systems are UO-31 renal; IGROV1 ovarian; SNB-19 CNS; SN12C renal; NCI-H23 lung; MCF7 breast; UACC-257 melanoma; U251 CNS; T-47D breast; SR leukemia.
Common to all, as to experiment: NCI-60 cell line screen, 48 h

Molecules are shown by their SMILES.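 Each compound was tested at five concentrations against cells in 96-well plates for 48 hours. GI50: concentration for 50% inhibition of growth. TGI denotes the concentration required for complete inhibition of growth.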

Regarding `Cc1cc([NH-])c([NH-])cc1C.[Cl][Pt+2][Cl]`, the GI50 with UO-31 renal is over 77.4 µM; in the assay with IGROV1 ovarian, 15.2 µM; in the assay on SNB-19 CNS, 10.5 µM; in the assay with SN12C renal it was 8.13 µM; with NCI-H23 lung, 14.2 µM; in the assay on MCF7 breast it was 7.37 µM. The figures for the GI50 in the assay with UACC-257 melanoma and in the assay on U251 CNS were 22.4 µM and 5.24 µM, respectively. Further, the TGI in the assay on UO-31 renal is over 100 µM; with IGROV1 ovarian, 45.4 µM; with SNB-19 CNS, over 100 µM; in the assay on SN12C renal it was 24.6 µM; in the assay with NCI-H23 lung it was 37 µM; with MCF7 breast, 25.2 µM. In addition, the figures for the TGI in the assay on UACC-257 melanoma and in the assay on U251 CNS were over 67.2 µM and 17 µM, respectively.
With `CC1=NNC(=O)C1C1C(=O)NN=C(c2c[nH]c3ccccc23)C1Br` (stereo not given), the TGI in the assay with UO-31 renal, in the assay on IGROV1 ovarian, in the assay with SNB-19 CNS, in the assay on SN12C renal, in the assay on NCI-H23 lung and in the assay with T-47D breast was over 100 µM throughout. Further, the TGI in the assay on UACC-257 melanoma and in the assay with U251 CNS was over 100 µM in each case.
Turning to `COc1ccc(N2CC(=O)N(C(=O)COc3ccc(OCC(=O)N4C(=O)CN(c5ccc(OC)cc5)C4=S)cc3)C2=S)cc1`, the TGI in the assay on UO-31 renal, in the assay with IGROV1 ovarian, with SNB-19 CNS, with SN12C renal, with NCI-H23 lung and with MCF7 breast was over 100 µM each time. In addition, the TGI in the assay on UACC-257 melanoma and in the assay on U251 CNS was over 100 µM each time.
For the compound `CCNCCNC(=O)c1ccc(I)cc1`, the TGI in the assay on UO-31 renal, with IGROV1 ovarian, in the assay with SR leukemia, in the assay on SNB-19 CNS, with SN12C renal and in the assay with NCI-H23 lung was over 100 µM throughout. The TGI with MCF7 breast and in the assay with U251 CNS was over 100 µM in each case.
As to `CCN(CCCOc1ccccc1)CCN(CC)CCCOc1ccccc1`, the TGI in the assay with UO-31 renal came to 22.3 µM; in the assay with IGROV1 ovarian it was 23.5 µM; in the assay on SR leukemia it was 26.6 µM; with SNB-19 CNS, 23.4 µM; in the assay on SN12C renal it was 44.8 µM; in the assay with NCI-H23 lung, 40.6 µM. In addition, the TGI was 57.3 µM with MCF7 breast, 31.5 µM with UACC-257 melanoma and 27.5 µM with U251 CNS.
Consider `Cc1ccc(C)c(NC(=O)C(=O)C(C(=O)c2ccc3ccccc3c2)C2OC(=O)c3ccccc32)c1` (stereo not given), for which the TGI in the assay with UO-31 renal is 31.6 µM; in the assay with IGROV1 ovarian, 40.5 µM; in the assay on SR leukemia it was over 100 µM; with SNB-19 CNS, 31.2 µM; with SN12C renal, 39.8 µM; with NCI-H23 lung, 54.8 µM. Moreover, the TGI amounted to 36.5 µM in the assay on UACC-257 melanoma and 16.2 µM in the assay on U251 CNS.
For the compound `C[C@H](c1ccccc1)N1C(=O)[C@@H](O)[C@H]1[C@H](CO)OCc1ccccc1`, the TGI in the assay with UO-31 renal, in the assay on IGROV1 ovarian, in the assay on SR leukemia, in the assay with SNB-19 CNS, in the assay on SN12C renal and in the assay on NCI-H23 lung was over 100 µM throughout. For the same compound, the TGI in the assay with MCF7 breast, in the assay with UACC-257 melanoma and in the assay on U251 CNS was over 100 µM each time.
Turning to `COC1=NCc2ccccc2-c2ccccc21`, the TGI with UO-31 renal, with SNB-19 CNS, with SN12C renal, with NCI-H23 lung, in the assay with UACC-257 melanoma and in the assay with U251 CNS was over 100 µM each time.
As for `O=S1(=O)c2ccccc2Oc2ccc(C(/C=N/O)=N/O)cc21`, the TGI with UO-31 renal is 68.8 µM; with IGROV1 ovarian, 68.9 µM; in the assay with SN12C renal, over 100 µM; with MCF7 breast, 92.5 µM; in the assay on T-47D breast, 35.6 µM; in the assay with U251 CNS it was over 100 µM.
Regarding `C#CCNC(CSSCC(N)C(=O)O)C(=O)O` (stereo not given), the TGI in the assay with UO-31 renal, with IGROV1 ovarian, in the assay with SNB-19 CNS, with NCI-H23 lung, in the assay on MCF7 breast and in the assay with T-47D breast was over 100 µM throughout. Besides, the TGI in the assay with UACC-257 melanoma and with U251 CNS was over 100 µM throughout.
Regarding `CCOC(=O)C(C#N)(Cc1c[nH]c2ccccc12)NC(C)=O` (stereo not given), the TGI with UO-31 renal, in the assay on IGROV1 ovarian, in the assay on SN12C renal, in the assay on NCI-H23 lung, in the assay on UACC-257 melanoma and in the assay with U251 CNS was over 100 µM throughout.
On to `Cc1cc(C)nc(NS(=O)(=O)c2ccc(NC(=O)c3c4ccccc4nc4ccccc34)cc2)n1`, for which the TGI in the assay on UO-31 renal, in the assay on IGROV1 ovarian, with SR leukemia, with SNB-19 CNS, in the assay with SN12C renal and in the assay on NCI-H23 lung was over 100 µM in each case. The TGI in the assay with MCF7 breast, in the assay on UACC-257 melanoma and in the assay with U251 CNS was over 100 µM in each case.
As for `c1ccc(-c2csc3c4ccccc4c4ccccc4[n+]23)cc1`, the TGI with UO-31 renal was 31.8 µM; with IGROV1 ovarian, 31.3 µM; with SR leukemia it was over 100 µM; with SNB-19 CNS, 7.52 µM; with SN12C renal it was 11.2 µM; in the assay with NCI-H23 lung, 11.9 µM. The TGI in the assay on UACC-257 melanoma was found to be 3.27 µM; in the assay with U251 CNS, 13.8 µM.
As for `COC(=O)[C@H]1C=NN[C@@H]1C(=O)N1[C@H]2CC3CC[C@@]2(CS1(=O)=O)C3(C)C`, the TGI with UO-31 renal, with IGROV1 ovarian, in the assay with SR leukemia, in the assay on SNB-19 CNS, in the assay on SN12C renal and with NCI-H23 lung was over 100 µM throughout. The TGI in the assay on MCF7 breast, in the assay with UACC-257 melanoma and in the assay with U251 CNS was over 100 µM each time.
As for `CC(C)(C)c1ccccc1N1C(=O)c2ccc3c4c(ccc(c24)C1=O)N(c1ccccc1C(C)(C)C)C3=O`, the TGI in the assay with UO-31 renal, in the assay with IGROV1 ovarian, in the assay on SR leukemia, in the assay on SNB-19 CNS, in the assay with SN12C renal and with NCI-H23 lung was over 100 µM throughout. Also, the TGI with MCF7 breast, in the assay on UACC-257 melanoma and with U251 CNS was over 100 µM each time.
For `Cc1c(/C=N/NC(=O)c2ccccc2O)c(=O)n(-c2ccccc2)n1C`, the TGI in the assay on UO-31 renal, with IGROV1 ovarian, in the assay with SR leukemia, with SNB-19 CNS, in the assay with SN12C renal and in the assay with NCI-H23 lung was over 100 µM in each case. Also, the TGI with UACC-257 melanoma and in the assay on U251 CNS was over 100 µM in each case.
Take `CCCCCOc1ccc(C=Nc2ccc(CCc3ccc(N=Cc4ccc(OCCCCC)cc4)cc3)cc2)cc1`: the TGI in the assay on UO-31 renal, in the assay on IGROV1 ovarian, in the assay with SNB-19 CNS, in the assay with SN12C renal, with NCI-H23 lung and with MCF7 breast was over 100 µM throughout. Also, the TGI with UACC-257 melanoma and in the assay with U251 CNS was over 100 µM in each case.
Take `CCn1nc(C)c2c1C(=O)NCC(=O)N2`: the TGI with UO-31 renal, in the assay with IGROV1 ovarian, with SNB-19 CNS, in the assay with SN12C renal, in the assay with NCI-H23 lung and with UACC-257 melanoma was over 100 µM in each case. In the assay on U251 CNS, this compound showed a TGI of over 100 µM.
Regarding `CNC(C)(C)Cc1ccc(Cl)cc1`, the TGI with IGROV1 ovarian, in the assay with SN12C renal, with NCI-H23 lung, in the assay with UACC-257 melanoma and with U251 CNS was over 100 µM each time.
Turning to `CCO/C(=N/S(=O)(=O)C(F)(F)F)N(C(C)C)C(C)C`, the TGI in the assay on IGROV1 ovarian, in the assay on SNB-19 CNS, with SN12C renal, in the assay with NCI-H23 lung, in the assay with MCF7 breast and in the assay on T-47D breast was over 100 µM in each case. For the same compound, the TGI in the assay on UACC-257 melanoma and in the assay on U251 CNS was over 100 µM throughout.
Take `CN1CCC(CNc2cc(C3(C(=O)Nc4cc(C(=O)Nc5ccc(Cl)c(C(F)(F)F)c5)ccc4F)CC3)ncn2)CC1`: the GI50 in the assay on IGROV1 ovarian is 2.17 µM; in the assay on SN12C renal, 2.56 µM; with NCI-H23 lung, 1.94 µM; with MCF7 breast, 1.97 µM; in the assay on T-47D breast, 4.14 µM; in the assay with U251 CNS it was 1.63 µM. Besides, the TGI stood at 6.19 µM in the assay on IGROV1 ovarian; 8.92 µM with SN12C renal; 4.57 µM in the assay on NCI-H23 lung; 5.24 µM with MCF7 breast; 26.8 µM in the assay with T-47D breast; 3.62 µM in the assay with U251 CNS.
Take `N=C1C(=N)c2ccccc2-c2ccccc21.[Cl-].[Ru+2].c1ccc(-c2ccccn2)nc1.c1ccc(-c2ccccn2)nc1`: the TGI in the assay with UO-31 renal, in the assay with IGROV1 ovarian, with SR leukemia, with SN12C renal, in the assay with NCI-H23 lung and in the assay with UACC-257 melanoma was over 100 µM each time. Further, the TGI in the assay on U251 CNS was over 100 µM.
As for `COc1cc2c(c3c1c(=O)c1ccccc1n3C)C=CC1(CCCC1)O2`, the TGI with IGROV1 ovarian was 28.4 µM; with SR leukemia, 52.8 µM; with SNB-19 CNS, 35.2 µM; in the assay on SN12C renal, 37.2 µM; in the assay with NCI-H23 lung it was 28.6 µM; in the assay on MCF7 breast, 39.4 µM. The results for the TGI with UACC-257 melanoma and in the assay with U251 CNS were 31 µM and 31.9 µM, respectively.
